From PubChem BioAssay (NCI)
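Values below derive from 48-hour exposures of cells grown in 96-well plates, with endpoints linearly interpolated between the two concentrations bracketing the appropriate inhibition level. GI50: concentration for 50% inhibition of growth. The concentration for full growth arrest is given as TGI.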

How the values were obtained:
Assay in all cases: NCI tumour cell line growth inhibition, 48 h
[1] = tested on: XF 498 CNS
[2] = tested on: SF-295 CNS
[3] = tested on: EKVX NSCLC
[4] = tested on: SK-MEL-5 melanoma
[5] = tested on: SW-620 colon
[6] = tested on: SNB-75 CNS
[7] = tested on: COLO 205 colon
[8] = tested on: HCT-15 colon
[9] = tested on: TK-10 renal
[10] = tested on: UACC-62 melanoma
[11] = tested on: M19-MEL melanoma
[12] = tested on: UO-31 renal
[13] = tested on: CCRF-CEM leukemia
[14] = tested on: SK-OV-3 ovarian
[15] = tested on: NCI-H460 lung
[16] = tested on: NCI-H522 lung
[17] = tested on: NCI-H226 lung
[18] = tested on: RXF 393 renal
[19] = tested on: UACC-257 melanoma
[20] = tested on: IGROV1 ovarian
[21] = tested on: OVCAR-8 ovarian
[22] = tested on: SF-268 CNS
[23] = tested on: SNB-19 CNS
[24] = tested on: 786-0 renal
[25] = tested on: SN12C renal
[26] = tested on: K-562 leukemia
[27] = tested on: OVCAR-4 ovarian
[28] = tested on: HCT-116 colon
[29] = tested on: A549 NSCLC
[30] = tested on: SK-MEL-28 melanoma
[31] = tested on: MALME-3M melanoma
[32] = tested on: SNB-78 CNS
[33] = tested on: KM12 colon
[34] = tested on: A498 renal
[35] = tested on: NCI-H23 lung
[36] = tested on: ACHN renal
[37] = tested on: DLD-1 colon
[38] = tested on: HCC-2998 colon
[39] = tested on: M14 melanoma
[40] = tested on: RPMI-8226 leukemia
[41] = tested on: OVCAR-3 ovarian
[42] = tested on: OVCAR-5 ovarian
[43] = tested on: SK-MEL-2 melanoma
[44] = tested on: MOLT-4 leukemia
[45] = tested on: HOP-92 NSCLC
[46] = tested on: KM20L2 colon
[47] = tested on: HOP-18 NSCLC
[48] = tested on: LXFL 529 NSCLC
[49] = tested on: SF-539 CNS
[50] = tested on: HOP-62 NSCLC
[51] = tested on: U251 CNS
[52] = tested on: LOX IMVI melanoma
[53] = tested on: DMS 114 small cell lung
[54] = tested on: DMS 273 small cell lung
[55] = tested on: CAKI-1 renal
[56] = tested on: HT29 colon
[57] = tested on: HL-60(TB) leukemia
[58] = tested on: RXF-631 renal

## COc1ccc2nc3cc(Cl)ccc3c(SCC(=O)Nc3ccccc3-c3ccccc3NC(=O)CSc3c4ccc(Cl)cc4nc4ccc(OC)cc34)c2c1
[1]
  TGI: > 100 µM
[2]
  TGI: > 100 µM
[3]
  TGI: > 100 µM
[4]
  TGI: > 100 µM
[5]
  TGI: > 100 µM
[6]
  TGI: > 100 µM
[7]
  TGI: > 100 µM
[8]
  TGI: > 100 µM
[9]
  TGI: > 100 µM
[10]
  TGI: > 100 µM
[11]
  TGI: > 100 µM
[12]
  TGI: > 100 µM
[13]
  TGI: > 100 µM
[14]
  TGI: > 100 µM
[15]
  TGI: > 100 µM
[16]
  TGI: > 100 µM
[17]
  TGI: > 100 µM
[18]
  TGI: > 100 µM
[19]
  TGI: > 100 µM
[20]
  TGI: > 100 µM
[21]
  TGI: > 100 µM
[22]
  TGI: > 100 µM
[23]
  TGI: > 100 µM
[24]
  TGI: > 100 µM
[25]
  TGI: > 100 µM
[26]
  TGI: > 100 µM
[27]
  TGI: > 100 µM
[28]
  TGI: > 100 µM
[29]
  TGI: > 100 µM
[30]
  TGI: > 100 µM
[31]
  TGI: > 100 µM
[32]
  TGI: > 100 µM
[33]
  TGI: > 100 µM
[34]
  TGI: > 100 µM
[35]
  TGI: > 100 µM
[36]
  TGI: > 100 µM
[37]
  TGI: > 100 µM
[38]
  TGI: > 100 µM
[39]
  TGI: > 100 µM
[40]
  TGI: > 100 µM
[41]
  TGI: > 100 µM
[42]
  TGI: > 100 µM
[43]
  TGI: > 100 µM
[44]
  TGI: > 100 µM
[45]
  TGI: > 100 µM
[46]
  TGI: > 100 µM
[47]
  TGI: > 100 µM
[48]
  TGI: > 100 µM
[49]
  TGI: > 100 µM
[50]
  TGI: > 100 µM
[51]
  TGI: > 100 µM
[52]
  TGI: > 100 µM
[53]
  TGI: > 100 µM
[54]
  TGI: > 100 µM
[55]
  TGI: > 100 µM
[56]
  TGI: > 100 µM

## CC(C)(c1ccccc1)c1ccc(Oc2ccc(C#N)c(C#N)c2)cc1
[2]
  TGI: > 100 µM
[3]
  TGI: > 100 µM
[4]
  TGI: > 100 µM
[5]
  TGI: > 100 µM
[7]
  GI50: > 100 µM
  TGI: > 100 µM
[9]
  GI50: > 100 µM
  TGI: > 100 µM
[10]
  GI50: > 100 µM
  TGI: > 100 µM
[11]
  TGI: > 100 µM
[12]
  TGI: 40.5 µM
[13]
  TGI: > 100 µM
[14]
  GI50: > 100 µM
  TGI: > 100 µM
[15]
  GI50: > 100 µM
  TGI: > 100 µM
[16]
  GI50: 16.9 µM
  TGI: 84.8 µM
[18]
  TGI: > 100 µM
[20]
  GI50: > 100 µM
  TGI: > 100 µM
[21]
  GI50: > 100 µM
  TGI: > 100 µM
[22]
  TGI: > 100 µM
[23]
  TGI: > 100 µM
[24]
  GI50: > 100 µM
  TGI: > 100 µM
[25]
  GI50: > 100 µM
  TGI: > 100 µM
[26]
  TGI: > 100 µM
[27]
  TGI: > 100 µM
[28]
  TGI: > 100 µM
[29]
  TGI: > 100 µM
[30]
  GI50: > 100 µM
  TGI: > 100 µM
[31]
  GI50: > 100 µM
  TGI: > 100 µM
[33]
  GI50: > 100 µM
  TGI: > 100 µM
[34]
  GI50: > 100 µM
  TGI: > 100 µM
[57]
  TGI: > 100 µM
[35]
  TGI: > 100 µM
[36]
  TGI: > 100 µM
[37]
  GI50: > 100 µM
  TGI: > 100 µM
[38]
  GI50: > 100 µM
  TGI: > 100 µM
[39]
  TGI: > 100 µM
[40]
  TGI: > 100 µM
[42]
  GI50: > 100 µM
  TGI: > 100 µM
[43]
  GI50: > 100 µM
  TGI: > 100 µM
[44]
  TGI: > 100 µM
[45]
  TGI: > 100 µM
[58]
  GI50: > 100 µM
  TGI: > 100 µM
[46]
  GI50: > 100 µM
  TGI: > 100 µM
[48]
  TGI: > 100 µM
[49]
  GI50: > 100 µM
  TGI: > 100 µM
[50]
  GI50: > 100 µM
  TGI: > 100 µM
[51]
  TGI: > 100 µM
[52]
  GI50: > 100 µM
  TGI: > 100 µM
[53]
  TGI: > 100 µM
[55]
  GI50: > 100 µM
  TGI: > 100 µM
